# Assay results: ChEMBL document CHEMBL1127439, “Structure-activity relationship studies of central nervous system agents. 13. 4-[3-(Benzotriazol-1-yl)propyl]-1-(2-methoxyphenyl)piperazine, a new putative 5-HT1A receptor antagonist, and its analogs” (J Med Chem, 1994)
# What was measured:
# [1] = biological target: T1, 5-hydroxytryptamine receptor 1A (Rattus norvegicus, UniProt P19327); experiment: Tested in vitro for receptor binding affinity against 5-hydroxytryptamine 1A receptor using radioligand [3H]8-OH-DPAT
# T1 sequence (P19327 whole entry): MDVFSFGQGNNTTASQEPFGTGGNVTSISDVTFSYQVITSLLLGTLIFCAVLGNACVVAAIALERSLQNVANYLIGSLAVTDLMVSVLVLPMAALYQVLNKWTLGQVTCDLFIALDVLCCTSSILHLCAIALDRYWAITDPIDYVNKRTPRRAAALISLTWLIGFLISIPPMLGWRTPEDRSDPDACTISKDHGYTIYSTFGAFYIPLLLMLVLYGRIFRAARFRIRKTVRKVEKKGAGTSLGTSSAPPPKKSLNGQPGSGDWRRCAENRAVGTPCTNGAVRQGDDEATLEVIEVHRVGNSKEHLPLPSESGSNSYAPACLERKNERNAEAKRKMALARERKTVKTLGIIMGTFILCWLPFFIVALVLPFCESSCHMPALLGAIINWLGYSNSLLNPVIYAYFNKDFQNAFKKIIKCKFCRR
# [2] = biological target: Serotonin 2 (5-HT2) receptor (Rattus norvegicus, UniProt P30994+P08909+P14842); experiment: Tested in vitro for receptor binding affinity against 5-hydroxytryptamine 2 receptor using radioligand [3H]ketanserin; type: protein assay
# Rattus norvegicus [3] = organism: Rattus norvegicus; experiment: Selectivity is the ratio between Ki values of 5-HT2 and 5-HT1A
# Mus musculus [4] = experiment: Effect on 8-OH-DPAT-induced hypothermia in mice (5 mg/kg) at intraperitoneal dosage of 4 mg/kg of compound after 30 mins. Values expressed as +/- SEM; type: functional
# Mus musculus [5] = experiment: Effect on 8-OH-DPAT-induced hypothermia in mice (5 mg/kg) at intraperitoneal dosage of 4 mg/kg of compound after 45 mins. Values expressed as +/- SEM; type: functional
# Mus musculus [6] = experiment: Effect on 8-OH-DPAT-induced hypothermia in mice (5 mg/kg) at intraperitoneal dosage of 4 mg/kg of compound after 60 mins. Values expressed as +/- SEM; type: functional
# Mus musculus [7] = experiment: Effect on 8-OH-DPAT-induced hypothermia in mice (5 mg/kg) at intraperitoneal dosage of 8 mg/kg of compound after 15 mins. Values expressed as +/- SEM; type: functional
# Mus musculus [8] = experiment: Effect on 8-OH-DPAT-induced hypothermia in mice (5 mg/kg) at intraperitoneal dosage of 8 mg/kg of compound after 30 mins. Values expressed as +/- SEM; type: functional
# Mus musculus [9] = experiment: Effect on 8-OH-DPAT-induced hypothermia in mice (5 mg/kg) at intraperitoneal dosage of 8 mg/kg of compound after 45 mins. Values expressed as +/- SEM; type: functional
# Mus musculus [10] = experiment: Effect on 8-OH-DPAT-induced hypothermia in mice (5 mg/kg) at intraperitoneal dosage of 8 mg/kg of compound after 60 mins; type: functional
# Mus musculus [11] = experiment: Effect on 8-OH-DPAT-induced hypothermia in mice (5 mg/kg) at intraperitoneal dosage of 16 mg/kg of compound after 15 mins; type: functional
# Mus musculus [12] = experiment: Effect on 8-OH-DPAT-induced hypothermia in mice (5 mg/kg) at intraperitoneal dosage of 16 mg/kg of compound after 30 mins; type: functional
# Mus musculus [13] = experiment: Effect on 8-OH-DPAT-induced hypothermia in mice (5 mg/kg) at intraperitoneal dosage of 16 mg/kg of compound after 45 mins; type: functional
# Mus musculus [14] = experiment: Effect on 8-OH-DPAT-induced hypothermia in mice (5 mg/kg) at intraperitoneal dosage of 16 mg/kg of compound after 60 mins; type: functional
# Mus musculus [15] = experiment: Effect on 8-OH-DPAT-induced hypothermia in mice (5 mg/kg) at intraperitoneal dosage of 4 mg/kg of compound after 15 mins. Values expressed as +/- SEM; type: functional
# Rattus norvegicus [16] = experiment: Tested for the effect on 8-OH-DPAT-induced behavior in reserpine pretreated rat against flat body posture at dosage of 16 mg/kg; type: functional
# Rattus norvegicus [17] = experiment: Tested for the effect on 8-OH-DPAT-induced behavior in reserpine pretreated rat against flat body posture at dosage of 4 mg/kg; type: functional
# Rattus norvegicus [18] = experiment: Tested for the effect on 8-OH-DPAT-induced behavior in reserpine pretreated rat against flat body posture at dosage of 8 mg/kg; type: functional
# Rattus norvegicus [19] = experiment: Tested for the effect on 8-OH-DPAT-induced behavior in reserpine pretreated rat against forepaw treading at dosage of 16 mg/kg; type: functional
# Rattus norvegicus [20] = experiment: Tested for the effect on 8-OH-DPAT-induced behavior in reserpine pretreated rat against forepaw treading at dosage of 8 mg/kg; type: functional
# Rattus norvegicus [21] = experiment: Tested for the effect on 8-OH-DPAT-induced lower lip retraction (LLR) in rat at dosage of 16 mg/kg; type: functional
# Rattus norvegicus [22] = experiment: Tested for the effect on 8-OH-DPAT-induced lower lip retraction (LLR) in rat at dosage of 2 mg/kg; type: functional
# Rattus norvegicus [23] = experiment: Tested for the effect on 8-OH-DPAT-induced lower lip retraction (LLR) in rat at dosage of 4 mg/kg; type: functional
# Rattus norvegicus [24] = experiment: Tested for the effect on 8-OH-DPAT-induced lower lip retraction (LLR) in rat at dosage of 8 mg/kg; type: functional
# Rattus norvegicus [25] = experiment: Tested for the induction of lower lip retraction (LLR) by the investigated compounds in rat at dosage of 16 mg/kg; type: functional
# Rattus norvegicus [26] = experiment: Tested for the induction of lower lip retraction (LLR) by the investigated compounds in rat at dosage of 2 mg/kg; type: functional
# Rattus norvegicus [27] = experiment: Tested for the induction of lower lip retraction (LLR) by the investigated compounds in rat at dosage of 4 mg/kg; type: functional
# Rattus norvegicus [28] = experiment: Tested for the induction of lower lip retraction (LLR) by the investigated compounds in rat at dosage of 8 mg/kg; type: functional
# Rattus norvegicus [29] = experiment: Tested for the effect on 8-OH-DPAT-induced behavior in reserpine pretreated rat against forepaw treading at dosage of 4 mg/kg; type: functional
compound,measurement,setting,value
CCN1CCN(c2ccccc2OC)CC1,Ki,[1],203 nM
same,Ki,[2],3120 nM
same,Selectivity,Rattus norvegicus [3],15
CCCCN1CCN(c2ccccc2OC)CC1,Ki,[1],57 nM
same,Ki,[2],2280 nM
same,Selectivity,Rattus norvegicus [3],40
COc1ccccc1N1CCN(CCCCn2nnc3ccccc32)CC1,Ki,[1],17 nM
same,Ki,[2],160 nM
same,Delta t,Mus musculus [4],4.2 °C
same,Delta t,Mus musculus [5],3.8 °C
same,Delta t,Mus musculus [6],3.2 °C
same,Delta t,Mus musculus [7],3.9 °C
same,Delta t,Mus musculus [8],4.1 °C
same,Delta t,Mus musculus [9],3.5 °C
same,Delta t,Mus musculus [10],2.7 °C
same,Delta t,Mus musculus [11],5.3 °C
same,Delta t,Mus musculus [12],5.6 °C
same,Delta t,Mus musculus [13],5.6 °C
same,Delta t,Mus musculus [14],5.2 °C
same,Delta t,Mus musculus [15],3.9 °C
same,Behavioral score,Rattus norvegicus [16],12.7
same,Behavioral score,Rattus norvegicus [17],11
same,Behavioral score,Rattus norvegicus [18],8.2
same,Behavioral score,Rattus norvegicus [19],6.1
same,Behavioral score,Rattus norvegicus [20],3.6
same,LLR score,Rattus norvegicus [21],2.4
same,LLR score,Rattus norvegicus [22],2.2
same,LLR score,Rattus norvegicus [23],2.1
same,LLR score,Rattus norvegicus [24],1.9
same,LLR score,Rattus norvegicus [25],0.7
same,LLR score,Rattus norvegicus [26],0.2
same,LLR score,Rattus norvegicus [27],0.3
same,LLR score,Rattus norvegicus [28],0.1
same,Selectivity,Rattus norvegicus [3],9.4
same,Behavioral score,Rattus norvegicus [29],10.3
COc1ccccc1N1CCN(CCn2nnc3ccccc32)CC1,Ki,[1],42 nM
same,Ki,[2],1620 nM
same,Selectivity,Rattus norvegicus [3],39
